The values that follow come from article PMC11380953, “Multivalent, calcium-independent binding of surfactant protein A and D to sulfated glycosaminoglycans of the alveolar epithelial glycocalyx” (American Journal of Physiology - Lung Cellular and …, 2024).

This test has as its target T1, hSP-A (Homo sapiens, UniProt Q8IWL1+Q8IWL2).
T1 construct: Human PAP patient, BAL isolated; from tissue; host or cells: bronchoalveolar lavage fluid of a patient with pulmonary alveolar proteinosis
In words: Collectin-based binding assay (immobilized hSP-A, WGA-AlexaFluor488 detection). Conditions: for normalized fluorescence of WGA bound to GAG on immobilized hSP-A: absence of calcium (Fig. 4B, C); for binding of immobilized hSP-A to GAG (normalized fluorescence): presence of 5 mM calcium (Fig. 4B, C). The method, then: hSP-A was immobilized in a black 96-well plate (655076, Greiner BIO-One, Frickenhausen, Germany) by coating the plate with a specific anti-SP-A antibody (Abcam, abab190087, Cambridge, UK) at a concentration of 0.5 µg/mL in coating buffer [0.1 M NaHCO3 buffer (pH 9.6)] at 4°C overnight. Afterward, the plate was blocked with 100 µL Synblock (Bio-Rad, BUF034B, California) for 2 h at room temperature. Then, hSP-A was added at 14 ng/well and incubated with the antibody for 1 h at room temperature in washing buffer (5 mM Tris, 0.9% NaCl, and 0.05% Tween-20) to immobilize it. After washing with washing buffer, different concentrations of HA or HS ranging from 10 mM to 1 nM were added in either washing buffer without calcium or with 5 mM CaCl2 and incubated with the immobilized protein for 1 h at room temperature. The following washing steps were performed with washing buffer containing no calcium or 5 mM CaCl2. To detect the GAGs bound to the protein, an AlexaFluor488-conjugated wheat germ agglutinin (WGA, W11261, Invitrogen, Massachusetts) was added at 50 µg/mL in washing buffer containing no calcium or 5 mM CaCl2 and incubated it for 30 min at room temperature protected from light. After washing with washing buffer with or without calcium, 100 µL of washing buffer without calcium was added to read the fluorescence of the bound WGA with an excitation filter at 485 nm and an emission filter at 520 nm in a plate reader (FLUOstar Omega, BMG Labtech, Ortenberg, Germany).
The data of the binding inhibition assay were analyzed in GraphPad Prism 9.5.1 using the “normalize” function and fitting to the nonlinear regression dose-response inhibition. The best fitting was achieved using the “[Inhibitor] versus response–variable slope (four parameters)” model. The fluorescence values from the collectin-based binding assay were normalized using the same “normalize” function in GraphPad, and the statistical test used was the “non-parametric Kruskal-Wallis” test. The statistical test used for the DMMB assay for GAG quantification was also the “non-parametric Kruskal-Wallis” test.

T1 sequence (Q8IWL2 21-248): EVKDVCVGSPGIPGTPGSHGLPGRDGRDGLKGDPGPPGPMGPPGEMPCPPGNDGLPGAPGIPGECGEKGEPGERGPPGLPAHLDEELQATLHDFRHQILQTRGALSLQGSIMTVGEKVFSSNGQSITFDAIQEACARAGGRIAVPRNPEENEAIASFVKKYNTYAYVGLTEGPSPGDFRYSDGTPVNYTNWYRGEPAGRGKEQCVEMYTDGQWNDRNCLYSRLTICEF
T1 sequence (Q8IWL1 21-248): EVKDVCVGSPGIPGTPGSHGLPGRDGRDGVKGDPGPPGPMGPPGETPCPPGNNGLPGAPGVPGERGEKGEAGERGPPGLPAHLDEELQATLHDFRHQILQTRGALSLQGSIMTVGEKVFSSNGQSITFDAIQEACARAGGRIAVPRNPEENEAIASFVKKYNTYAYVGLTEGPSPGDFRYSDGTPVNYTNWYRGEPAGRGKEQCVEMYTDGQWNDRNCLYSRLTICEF

In the case of heparan sulfate sodium [HS], the “normalized fluorescence of WGA bound to GAG on immobilized hSP-A” value is listed as “increased fluorescence” and the “binding of immobilized hSP-A to GAG (normalized fluorescence)” value is given as “able to bind”.
For the substance hyaluronic acid sodium salt [HA], the “normalized fluorescence of WGA bound to GAG on immobilized hSP-A” value is on record as “no significant increase in fluorescence” and the “binding of immobilized hSP-A to GAG (normalized fluorescence)” value is reported as “able to bind”.
